# Assay results from publication PMC6407913, “DREADD Agonist 21 Is an Effective Agonist for Muscarinic-Based DREADDs in Vitro and in Vivo” (ACS Pharmacology & Translational Science, 2018).
# Substitutions are numbered along the chain they refer to. Read-outs that look alike come from different tables or passages of the source.
# Columns and labels:
# [1] = set-up: method as in PMID 28324647; conditions: following systemic administration of 10 mg/kg CNO; cited from earlier work
# hM3Dq = target: T1, hM3Dq (Homo sapiens, UniProt P20309, A239G/Y149C); experiment: Gq-mediated calcium release (FLIPR) assay; format: cell-based; conditions: CHO cells, mean ± SEM
# T1 construct: expressed in transfected cells
# hM4Di [2] = target: T2, hM4Di (Homo sapiens, UniProt P08173, A203G/Y113C); experiment: inhibition of isoproterenol-stimulated cAMP production; format: cell-based; set-up: expressed in transfected cells; conditions: inhibition of isoproterenol elevated cAMP, mean (±SEM)
# T2 sequence (P08173 1-479 Y113C/A203G): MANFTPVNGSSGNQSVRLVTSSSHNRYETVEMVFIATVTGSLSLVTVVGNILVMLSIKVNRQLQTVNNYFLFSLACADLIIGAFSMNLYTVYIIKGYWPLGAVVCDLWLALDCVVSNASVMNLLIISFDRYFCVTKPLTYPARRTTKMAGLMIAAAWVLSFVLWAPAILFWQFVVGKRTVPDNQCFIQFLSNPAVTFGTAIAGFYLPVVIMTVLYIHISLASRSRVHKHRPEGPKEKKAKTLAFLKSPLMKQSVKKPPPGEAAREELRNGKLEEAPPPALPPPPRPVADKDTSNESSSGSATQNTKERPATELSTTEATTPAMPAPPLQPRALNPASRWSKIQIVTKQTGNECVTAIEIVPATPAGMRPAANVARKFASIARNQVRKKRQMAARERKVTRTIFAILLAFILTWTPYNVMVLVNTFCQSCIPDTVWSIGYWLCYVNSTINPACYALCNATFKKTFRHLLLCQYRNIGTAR
# hM1 [3] = target: T3, hM1 (Homo sapiens, UniProt P11229); experiment: IP-One accumulation assay; format: cell-based; conditions: wildtype hM1
# T3 sequence (P11229 1-460): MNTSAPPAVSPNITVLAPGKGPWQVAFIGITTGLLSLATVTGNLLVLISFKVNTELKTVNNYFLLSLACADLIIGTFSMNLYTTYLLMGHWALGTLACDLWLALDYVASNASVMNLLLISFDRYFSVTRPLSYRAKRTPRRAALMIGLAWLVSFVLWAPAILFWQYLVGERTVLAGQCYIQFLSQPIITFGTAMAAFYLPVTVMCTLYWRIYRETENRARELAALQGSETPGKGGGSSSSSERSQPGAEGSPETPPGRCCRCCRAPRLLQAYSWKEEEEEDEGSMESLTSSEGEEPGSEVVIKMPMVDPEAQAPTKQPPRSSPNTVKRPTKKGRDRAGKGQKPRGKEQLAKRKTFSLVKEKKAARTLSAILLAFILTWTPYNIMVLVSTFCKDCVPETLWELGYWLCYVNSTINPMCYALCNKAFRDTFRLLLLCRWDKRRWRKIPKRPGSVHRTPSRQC
# hM1Dq [4] = target: T4, hM1Dq (Homo sapiens, UniProt P11229, A196G/Y106C); experiment: ERK1/2 phosphorylation (pERK1/2) assay
# T4 sequence (P11229 1-460 Y106C/A196G): T3 sequence (P11229 1-460) with Y106C, A196G
# hM1 [5] = target: T3, hM1; experiment: whole-cell [3H]NMS competition binding; conditions: hM1, FlpIn CHO cells, mean (±SEM)
# [6] = brain and plasma exposure after i.p. administration; format: in vivo, mice; conditions: i.p. 0.1, 1 and 10 mg/kg, 30 min after administration
# hM4Di [7] = target: T2, hM4Di; experiment: ERK1/2 phosphorylation (pERK1/2) assay
# hM1Dq [8] = target: T4, hM1Dq; experiment: IP-One accumulation assay
# hM1 [9] = target: T3, hM1; experiment: ERK1/2 phosphorylation (pERK1/2) assay; format: cell-based; conditions: wildtype hM1
# hM1Dq [10] = target: T4, hM1Dq; experiment: whole-cell [3H]NMS competition binding
# hM4 [11] = target: T5, hM4 (Homo sapiens, UniProt P08173); experiment: inhibition of isoproterenol-stimulated cAMP production; format: cell-based; conditions: hM4, inhibition of isoproterenol elevated cAMP, mean (±SEM)
# T5 construct: HA (hemagglutinin); expressed in transfected cells
# T5 sequence (P08173 1-479): T2 sequence (P08173 1-479 Y113C/A203G) with C113Y, G203A
# hM4Di [12] = target: T2, hM4Di; experiment: whole-cell [3H]NMS competition binding
# hM4 [13] = target: T5, hM4; experiment: whole-cell [3H]NMS competition binding; conditions: hM4, FlpIn CHO cells, mean (±SEM)
# [14] = test system: hM4Di expressed in PVH SIM1 neurons; experiment: food intake, hM4Di in PVH SIM1 neurons (Sim1-Cre mice)
# [15] = test system: hM3Dq expressed in ARC AgRP neurons; experiment: food intake, hM3Dq in ARC AgRP neurons (Agrp-ires-Cre mice)
# [16] = cited from earlier work
# T1 sequence (P20309 whole entry Y149C/A239G): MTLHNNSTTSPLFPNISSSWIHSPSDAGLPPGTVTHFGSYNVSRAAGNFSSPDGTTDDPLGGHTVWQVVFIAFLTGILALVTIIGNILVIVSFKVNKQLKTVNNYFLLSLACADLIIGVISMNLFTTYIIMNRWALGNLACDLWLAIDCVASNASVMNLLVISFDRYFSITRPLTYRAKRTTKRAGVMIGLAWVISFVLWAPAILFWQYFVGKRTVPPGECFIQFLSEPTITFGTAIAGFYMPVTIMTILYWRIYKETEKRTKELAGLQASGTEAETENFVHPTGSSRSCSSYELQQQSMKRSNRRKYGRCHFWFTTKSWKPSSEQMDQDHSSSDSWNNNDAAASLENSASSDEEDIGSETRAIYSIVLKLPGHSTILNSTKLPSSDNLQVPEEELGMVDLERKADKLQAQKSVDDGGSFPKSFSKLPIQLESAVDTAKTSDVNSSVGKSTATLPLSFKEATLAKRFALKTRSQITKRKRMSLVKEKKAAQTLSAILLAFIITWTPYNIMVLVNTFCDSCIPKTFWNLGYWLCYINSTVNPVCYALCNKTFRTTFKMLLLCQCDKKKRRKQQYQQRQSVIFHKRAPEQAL
smiles,measurement,setting,value
"CN1CCN(C2=Nc3cc(Cl)ccc3Nc3ccccc32)CC1 [clozapine, reference compound]",level in cerebrospinal fluid (CSF),[1],34 nM
CN1CCN(C2=Nc3ccccc3Cc3ccccc32)CC1 [perlapine],EC50,hM3Dq; read-out: pEC50 calcium mobilization (converted),8.32 nM
same,EC50,hM4Di [2],63.1 nM
same,agonist activity in IP1 assay,hM1 [3],no agonist activity
same,EC50,hM1Dq [4],158 nM
same,Ki,hM1 [5],91.2 nM
same,brain and plasma levels,[6],measurable brain and plasma levels
same,metabolism to clozapine,[6],no evidence of metabolism to clozapine
same,EC50,hM4Di [7],53.7 nM
same,EC50,hM1Dq [8],4.17 nM
same,agonist activity in pERK1/2 assay,hM1 [9],no agonist activity
same,Ki,hM1Dq [10],26.3 nM
same,EC50,hM4 [11],56.2 nM
same,Ki,hM4Di [12],67.6 nM
same,Ki,hM4 [13],263 nM
"CC(=O)OCC[N+](C)(C)C [ACh, acetylcholine]",reduction in binding affinity at hM4Di vs wildtype,hM4Di [12]; hM4Di vs hM4,> 10 fold
"C[N+]1([O-])CCN(C2=Nc3cc(Cl)ccc3Nc3ccccc32)CC1 [CNO, clozapine-N-oxide]",pEC50 calcium mobilization,hM3Dq,7.26±0.07
same,pEC50 cAMP,hM4Di [2],7.29 (±016) N = 4
same,"food intake, light cycle, sated mice","[14]; SIM1-Cre mice with AAV-DIO-hM4Di-mCherry, i.p.",increases feeding behavior in sated mice
same,food intake in control mice,[14]; wildtype (non-Cre-expressing) littermates injected with AAV-DIO-hM4Di-mCherry,neither C21 nor CNO ligand influenced food intake
same,"food intake, light cycle, sated mice","[15]; AgRP-ires-Cre mice with AAV-DIO-hM3Dq-mCherry, i.p.",increases feeding behavior in sated mice
same,food intake in control mice,[15]; wildtype (non-Cre-expressing) littermates injected with AAV-DIO-hM3Dq-mCherry,neither C21 nor CNO affected feeding behavior
same,agonist activity in IP1 assay,hM1 [3],no agonist activity
same,pEC50 pERK,"hM1Dq [4]; hM1Dq, CHO cells, mean (±SEM)",7.70 (±0.25) N = 11
same,pKi,hM1 [5],5.10 (±0.03) N = 7
same,pEC50 pERK,"hM4Di [7]; hM4Di, CHO cells, mean (±SEM)",6.89 (±0.12) N = 3
same,pEC50 IP1,"hM1Dq [8]; hM1Dq, CHO cells, mean (±SEM)",8.61 (±0.03) N = 10
same,agonist activity in pERK1/2 assay,hM1 [9],no agonist activity
same,higher binding affinity at hM1Dq than at wildtype hM1,hM1Dq [10]; hM1Dq vs hM1,> 10 fold
same,pKi,"hM1Dq [10]; hM1Dq, FlpIn CHO cells, [3H]-NMS, mean (±SEM)",6.74 (±0.10) N = 9
same,metabolic transformation to clozapine,"[16]; humans, nonhuman primates and guinea pigs",approximately 10%
same,metabolic transformation to clozapine,[16]; rodents,a few percent
same,higher binding affinity at hM4Di than at wildtype hM4,hM4Di [12]; hM4Di vs hM4,> 10 fold
same,pKi,"hM4Di [12]; hM4Di, FlpIn CHO cells, [3H]-NMS, mean (±SEM)",6.30 (±0.22) N = 3
same,pKi,hM4 [13],4.85 (±0.05) N = 3
"Clc1ccc2c(c1)N=C(N1CCNCC1)c1ccccc1N2 [NDMC, N-desmethylclozapine]",level in cerebrospinal fluid (CSF),[1],43 nM
